Reference: ChEMBL document CHEMBL3046374, “Preparation of 5-chloro-6-fluoroimidacloprid analogs and comparison of their insecticidal activity in a laboratory test with a 6-chloro-5-fluoro analog” (J Pestic Sci, 2007)

Key:
[1] = test system: Spodoptera litura; test: Insecticidal activity against Spodoptera litura second-instar larvae fed on compound pre-treated cabbage leaves assessed as insect mortality measured 5 days post compound treatment; format: functional
[2] = test system: Myzus persicae; test: Insecticidal activity against Myzus persicae (green peach aphid) first-instar nymphs fed on compound pre-treated egg plant seedlings or Japanese radish leaves assessed as insect mortality measured 5 days post compound treatment; format: functional
[3] = test system: Nilaparvata lugens; test: Insecticidal activity against Nilaparvata lugens (brown planthopper) second or third-instar nymphs fed on compound pre-treated rice seedlings assessed as insect mortality measured 5 days post compound treatment; format: functional
[4] = Lipophilicity, logP of the compound at 25 degC; format: physicochemical; settings: octanol/water

Structure (SMILES) | LD90 [1] [ppm] | LD90 [2] [ppm] | LD90 [3] [ppm] | logP [4]
N#C/N=C1/OCCN1Cc1cnc(F)c(Cl)c1 | >200 | 200 | >200 | 
N#C/N=C1/SCCN1Cc1cnc(F)c(Cl)c1 | >200 | 50 | >200 | 
N#C/N=C1/NCCN1Cc1cnc(F)c(Cl)c1 | >200 | 200 | >200 | 
O=[N+]([O-])/N=C1/NCCN1Cc1cnc(F)c(Cl)c1 | >200 | 200 | 50 | 0.98
O=[N+]([O-])/N=C1/SCCN1Cc1cnc(F)c(Cl)c1 | >200 | >200 | >200 | 
O=[N+]([O-])/N=C1/NCCN1Cc1cnc(Cl)c(F)c1 [5-FLUOROIMIDACLOPRID] | >50 | 0.2 | 0.2 | 0.79
O=[N+]([O-])/N=C1\NCCN1Cc1ccc(Cl)nc1 [IMIDACLOPRID] | >50 | 0.2 | 0.2 | 
